From patent US20030013650A1, “VR-OAC, an osomotically activated channel protein, nucleic acids encoding it, and uses thereof” (The Rockefeller University, priority 2000, published 2003)
Entries after “also recorded” stand apart in the source; their conditions may differ.

How the values were obtained:
[1] = tested on: C. elegans mutant osm-9; assay: Transgenic rescue of C. elegans mutant osm-9 (osmotic avoidance, nose touch, odorant avoidance); assay type: in vivo, Caenorhabditis elegans; conditions: for rescue of lack of osmotic avoidance and lack of response to nose touch: expressed in ASH neurons (sra6 promotor) of osm-9 worms
Description: The coding region of the rat VR-OAC cDNA was cloned into the C. elegans expression vector pPD49.26 that contained the sra6 promotor. This promotor directs expression in the ASH and ASI neurons. Purified DNA was injected into the gonad of hermaphroditic worms, strain N2, together with the marker gene elt-2/green fluorescent protein (GFP) which directs expression of GFP in C. elegans intestinal cells. Transgenic offspring could be identified by GFP fluorescence, and VR-OAC transgenic lines of worms were generated. Likewise, several transgenic lines of worms were established and maintained on an osm-9 (ky-10 allele) genetic background. In these worms, an osmotic avoidance in response to hyperosmotic stimuli was clearly present, as was sensitivity to nose touch (FIGS. 15A and 15B). The avoidance reactions were assayed on single animals as previously described^34. Odorant avoidance in response to octanone was not present. […] In order to confirm that the observed rescue is mediated by the ASH neuron, both ASH neurons were laser ablated in osm-9/VR-OAC transgenic (tg) worms. This procedure completely abolished rescue (FIGS. 15A and 15B). In order to visualize subcellular localization of the VR-OACtg in the ASH neuron, GFP was tagged to the C-terminus of VR-OAC. The tagged protein could be localized to the cilia of the ASH neuron in the worm nose where fluorescence was stronger than in any other part of this neuron. Rescue was not impaired in VR-OAC/GFPtg osm-9 worms (FIGS. 15A and 15B).
In order to understand better the specificity of the observed rescue, VR-OACtg worms were crossed to C. elegans mutants which genetically define the alternate mechanosensory pathway. VR-OACtg worms of the following mutant lines were generated: ocr-2, odr-3, glr-1, osm-10 and double-mutants of the former with osm-9. These lines were tested for osmotic avoidance, nose touch and odorant avoidance. […] In another control experiment addressing the specificity of the observed rescue, we expressed rat VR1 under the control of the sra6 promotor in ASH neurons of wild type and osm-9 worms. No rescue was observed. However, in osm-9 as well as in wild type worms tg for VR1 there was a strong avoidance response to vanilloids which was absent in non-tg worms.
Next, we wanted to use the transgenic rescue of osm-9 by VR-OAC as an in-vivo model in order to better understand structure-function relationships of VR-OAC. Gross deletions were constructed lacking either the N-terminal intracellular domain (aminoacid [AA] 1-410 of VR-OAC), the C-terminal intracellular domain (AA 741-781 of VR-OAC) or both. Three lines of worms were established for each of the gross deletions. The line with the most pronounced rescue as an indication of highest expression level of tg was investigated more in depth. […] The N-terminus and the C-terminus thus appear dispensable for the response to osmotic and mechanical stimuli, and, most likely, for proper intracellular transport in the ASH neuron. In addition to these gross deletions, we wanted to learn more about the structure-function relationship of strategically positioned single amino acid exchanges in the pore-loop domain of VR-OAC. As for the gross deletions, three lines of worms were generated for each point mutation. […]

[2] = tested on: VR-OAC; assay: Whole-cell and patch recordings from VR-OAC-transfected CHO-K1 cells; assay type: cell-based, chicken or rat; design: effect on VR-OAC-transfected cells (whole-cell current) / effect on whole-cell current: dose or concentration left out as unconfirmed; conditions: for VR-OAC currents on stimulation with hypotonic solution: after incubation in 10 μM thapsigargin and 20 μM SKF 96365 (combined)
Description: Electrophysiological characterization of VR-OAC was performed at room temperature on CHO-K1 cell lines stably or transiently transfected with one of four expression vectors, pcDNA3.1 (Invitrogen) with inserts bearing chicken or rat VR-OAC, eGFP-OAC, or eGFP-ΔOAC. These cells were selected because untransfected HEK 293 cells responded to hypotonic stress and Xenopus laevis oocytes are known to respond to membrane stretch (Yang and Sachs, 1989). Cells plated on glass-bottom Petri dishes were observed through a 40× water-immersion objective lens on an inverted microscope (Aviovert 100 M, Carl Zeiss) equipped with Nomarski optics. We recorded whole-cell and patch currents with a voltage-clamp amplifier (EPC-7, List-Electronic, Darmstadt-Eberstadt, Germany). Voltage stimuli were generated and responses recorded with a computer (P6400 GX1, Dell) running LabVIEW 5.0 software (National Instruments, Austin, Tex.). Voltage and current responses were low-pass filtered at 2 kHz with an eight-pole Bessel filter and sampled at 5 kHz.
Tight-seal pipettes were bent to permit an orthogonal approach to a cell's surface and heat-polished to give resistances of 3-5 MΩ. Internal solutions typically contained 117 mM NaCl, 5 mM HEPES, 1 mM EDTA, and mannitol to achieve isotonicity. EDTA was omitted in the pipette solution during experiments in which the bath solution also lacked EDTA. Pipette and cell capacitance were largely compensated; series resistance compensation ranged from 10% to 60%. Ground reference was provided by an Ag—AgCl electrode through a 150 mM KC1 agar bridge.
A fluid-jet stimulus was delivered by applying a pressure pulse of about 3 kPa to the rear of a glass pipette with a tip diameter of 5-10 μm. Filled with saline solution identical to that in the recording chamber, the pipette's tip was oriented perpendicular to the bottom of the chamber and placed roughly 10 μm above the target cell. The onset and termination of the jet were regulated by a solenoid valve (Picospritzer II, General Valve Corporation, Fairfield, N.J.) under computer control. During whole-cell recording, cells were maintained in isotonic or slightly hypertonic solutions. Mechanical stimulation was accomplished by perfusion of hypotonic solutions. […] Isotonic and hypertonic solutions were prepared by supplementing the standard hypotonic solution with mannitol to respectively 295 mmol kg−1 and 340 mmol kg−1.
In studies of the effects of Ca2+ and Gd3+ on whole-cell currents, hypotonic test solutions included respectively 2 mM CaCl2 or […] GdCl3. Because carboxylic-acid Ca2+ chelators are known to compromise the capacity of GdC13 to block mechanosensitive channels (Caldwell et al., 1998), EDTA was excluded from the latter medium and the pipette solution. […]

[3] = tested on: VR-OAC; assay: Ca2+ imaging (fluo-4) of CHO cells transfected with VR-OAC or variants; assay type: cell-based, rat and chicken; conditions: for fluo-4 fluorescence upon exposure to hypotonic medium: stores depleted with 10 μM thapsigargin and potentiation channels blocked with 20 μM SKF 96365 (combined); for response of VR-OAC-transfected cells to ligand (fluo-4 Ca2+ imaging): chicken and rat VR-OAC-transfected cells, resiniferatoxin 0.2 μM and 5 μM, anandamide 5 μM and 25 μM
From the text: (§1) To confirm that VR-OAC constitutes an ion channel and to determine the stimulus that gates it, we expressed the rat and chicken proteins in stably transfected Chinese hamster ovary (CHO) cells. Untransfected CHO cells and a line stably transfected with a VR1-expressing plasmid served as controls. We loaded VR-OAC-expressing cells with the Ca^2+ indicator fluo-4 AM and used conventional and confocal icroscopy to monitor changes in fluorescence, which reflected alterations in the ntracellular Ca^2+ concentration.
(§2) The complete cDNAs of rat VR-OAC, chicken VR-OAC, and rat VR1 were subcloned into the eukaryotic expression vector pcDNA3.1 (Invitrogen, Carlsbad, Calif.). CHO-K1 cells (ATCC, Manassas, Va.) were transfected with these vectors and selected with G418 (Life Technology, Gaithersburg, Md.). Stable clones that expressed the mRNAs were identified by Northern blot analysis and, for VR1, by response to ligand.
(§3) For Ca2+ imaging, cells were loaded for 30 min at room temperature in […] fluo-4 AM ester (Molecular Probes, Eugene, Oreg.) in isoosmotic Hille's saline solution (130 mM Na^+, 2.5 mM K^+, 2 mM Ca2+, 1 mM Mg2+, 138.5 mM Cl−, 20 mM D-glucose, and 10 mM HEPES at pH 7.3; Babcock et al., 1997) containing 2 mM probenecid. The cells were then washed and incubated for 15 min at 30° C. to promote deacetylation of internalized fluo-4 AM ester.
(§4) Confocal analysis was performed with an MRC-1024ES system (Bio-Rad, Hercules, Calif.) mounted on an inverted microscope (Zeiss Axiovert 135TV, Carl Zeiss, Jena, Germany). Confocal image series were collected using Lasersharp software (BioRad) running on a Poweredge 2300 computer (Dell Computer, Round Rock, Tex.). Images were also recorded with a cooled digital camera (Micromax, Princeton Instruments Inc., Princeton, N.J.) atop a Zeiss Axioplan microscope. These images were analyzed using IPLab software (Scanalytics Inc., Fairfax, Va.). Analysis of single-frame or single-cell integrated signal density was performed on Macintosh computers running NIH Image software (version 1.61; O'Neill et al., 1989).
(§5) Solutions with different osmotic strengths were created by adding water or mannitol to Hille's saline solution. Unless otherwise noted, the Ca2+ concentration of all solutions was held constant at 2 mM. The resultant osmolalities were verified with a vapor-pressure osmometer (Vapro 5520, Wescor Inc., Logan, Utah). The test solutions included a graded series of hypotonic solutions (with 220 mmol kg-1 the lowest osmolality), a hypertonic solution (330 mmol kg-1), isotonic solutions at 295 mmol kg-1 with graded concentrations of Na+ (with 50 mM the lowest concentration), and hypotonic solutions containing 100 μM, 250 μM, and 500 μM GdCl3. Ligands used for stimulation were resiniferatoxin (Sigma Chemicals, St. Louis, Mo.) at 0.2 μM and 5 μM and anandamide (Cayman Chemical, Ann Arbor, Mich.) at 5 μM and 25 μM. To test whether VR-OAC is directly gated by increases in temperature, we exposed dishes containing fluo-4-loaded cells to temperatures ranging from room temperature to 30° C., 37° C., 40° C., 45° C., 50° C., and 55° C. Images were acquired during the thermal stimulus series at intervals of 60 s for up to 10 min after the start of heating. A series of calibration experiments confirmed that this interval ensured proper thermal equilibration. A similar procedure was used to test the response to hypotonicity at various temperatures.

[4] = biological target: T1, rat VR1 (Rattus norvegicus, UniProt O35433); assay: Ca2+ imaging (fluo-4) of control CHO cells expressing rat VR1; assay type: cell-based; conditions: control CHO line expressing rat VR1; 200 nM resiniferatoxin (FIG. 10A legend)
T1 construct: The complete cDNAs of rat VR-OAC, chicken VR-OAC, and rat VR1 were subcloned into the eukaryotic expression vector pcDNA3.1; expressed in transfected cells
From the text: as §1
as §2, with “ligand. […]” for “ligand.”
Confocal analysis was performed with an MRC-1024ES system (Bio-Rad, Hercules, Calif.) mounted on an inverted microscope (Zeiss Axiovert 135TV, Carl Zeiss, Jena, Germany). […] Images were also recorded with a cooled digital camera (Micromax, Princeton Instruments Inc., Princeton, N.J.) atop a Zeiss Axioplan microscope. These images were analyzed using IPLab software (Scanalytics Inc., Fairfax, Va.). […]

[5] = biological target: T2, VR-OAC (Rattus norvegicus, UniProt Q9ERZ8, M680K); assay: Ca2+ imaging (fluo-4) of CHO cells transfected with VR-OAC or variants; assay type: cell-based, rat and chicken; conditions: tissue culture cells
T2 construct: The complete cDNAs of rat VR-OAC, chicken VR-OAC, and rat VR1 were subcloned into the eukaryotic expression vector pcDNA3.1; expressed in transfected cells; host or cells: CHO-K1 (stably or transiently transfected, pcDNA3.1)
From the text: as §1, §2, §3, §4, §5

T1 sequence (O35433 whole entry): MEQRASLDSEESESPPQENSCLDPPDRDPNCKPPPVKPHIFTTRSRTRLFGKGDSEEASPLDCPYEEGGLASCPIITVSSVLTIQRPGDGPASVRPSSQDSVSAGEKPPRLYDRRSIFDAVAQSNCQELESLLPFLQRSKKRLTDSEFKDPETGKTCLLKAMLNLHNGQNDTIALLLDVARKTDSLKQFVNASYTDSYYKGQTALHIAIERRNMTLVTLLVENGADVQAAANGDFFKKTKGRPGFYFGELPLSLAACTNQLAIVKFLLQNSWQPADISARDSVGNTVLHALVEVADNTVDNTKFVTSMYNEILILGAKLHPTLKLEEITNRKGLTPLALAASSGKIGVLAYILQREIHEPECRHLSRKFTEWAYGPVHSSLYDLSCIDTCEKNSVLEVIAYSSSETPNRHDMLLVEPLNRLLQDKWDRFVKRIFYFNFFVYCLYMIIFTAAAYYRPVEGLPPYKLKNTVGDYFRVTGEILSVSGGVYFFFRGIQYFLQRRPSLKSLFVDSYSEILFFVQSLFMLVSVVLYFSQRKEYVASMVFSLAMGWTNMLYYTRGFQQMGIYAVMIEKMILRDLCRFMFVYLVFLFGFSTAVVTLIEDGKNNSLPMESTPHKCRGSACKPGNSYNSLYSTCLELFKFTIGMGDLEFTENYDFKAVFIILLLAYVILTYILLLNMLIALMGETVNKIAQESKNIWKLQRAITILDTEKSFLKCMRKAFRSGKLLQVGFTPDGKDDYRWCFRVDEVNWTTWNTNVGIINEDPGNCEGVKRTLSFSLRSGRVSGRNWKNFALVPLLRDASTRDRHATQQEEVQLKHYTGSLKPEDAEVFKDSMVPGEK
T2 sequence (Q9ERZ8 whole entry M680K): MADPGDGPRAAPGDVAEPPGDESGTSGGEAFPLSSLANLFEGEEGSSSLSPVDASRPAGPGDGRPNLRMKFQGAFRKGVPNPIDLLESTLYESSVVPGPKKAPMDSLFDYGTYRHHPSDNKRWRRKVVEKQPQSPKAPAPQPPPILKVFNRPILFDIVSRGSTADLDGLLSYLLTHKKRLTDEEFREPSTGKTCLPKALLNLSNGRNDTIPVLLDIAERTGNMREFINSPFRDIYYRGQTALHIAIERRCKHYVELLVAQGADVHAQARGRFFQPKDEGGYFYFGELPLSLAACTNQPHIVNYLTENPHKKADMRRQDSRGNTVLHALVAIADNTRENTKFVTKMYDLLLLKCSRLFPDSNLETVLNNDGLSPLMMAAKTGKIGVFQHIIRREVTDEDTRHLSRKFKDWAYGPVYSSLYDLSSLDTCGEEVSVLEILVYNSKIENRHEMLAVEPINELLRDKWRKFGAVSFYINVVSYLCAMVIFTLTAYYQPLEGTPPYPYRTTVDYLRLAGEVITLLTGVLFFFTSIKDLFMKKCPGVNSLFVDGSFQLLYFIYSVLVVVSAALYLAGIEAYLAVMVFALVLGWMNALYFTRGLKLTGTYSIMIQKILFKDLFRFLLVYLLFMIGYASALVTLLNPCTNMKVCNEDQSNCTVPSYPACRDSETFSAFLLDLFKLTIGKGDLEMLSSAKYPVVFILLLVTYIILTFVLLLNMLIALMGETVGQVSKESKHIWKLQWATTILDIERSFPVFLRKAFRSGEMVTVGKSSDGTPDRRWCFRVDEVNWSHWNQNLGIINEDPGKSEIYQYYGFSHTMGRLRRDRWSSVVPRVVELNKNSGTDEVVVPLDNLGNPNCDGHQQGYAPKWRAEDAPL

**Q.** Which “rescue of lack of osmotic avoidance and lack of response to nose touch” value (shortened to “rescue of lack … to nose touch”) [1] does the source give for “rat VR1: rat vanilloid receptor 1, expressed as specificity control” here?
**A.** No rescue

**Q.** For `COc1ccc(CCCOC(Cn2ccnc2)c2ccc(OC)cc2)cc1` (stereo not drawn) [SKF 96365], which “VR-OAC currents on stimulation with hypotonic solution” value [2] is on record?
**A.** displayed characteristic VR-OAC currents

**Q.** What about the “fluo-4 fluorescence upon exposure to hypotonic medium” value [3] of the same molecule?
**A.** does not increase

**Q.** What does the source list for `C=C(C)[C@]12C[C@@H](C)[C@@]34O[C@](Cc5ccccc5)(O[C@@H]1[C@@H]3C=C(COC(=O)Cc1ccc(O)c(OC)c1)C[C@]1(O)C(=O)C(C)=C[C@@H]41)O2` [resiniferatoxin]?
**A.** response of VR-OAC-transfected cells to ligand (fluo-4 Ca2+ imaging) [3]: responded neither; intracellular Ca^2+ concentration / Ca^2+ influx (fluo-4 fluorescence) [4]: strong Ca^2+ influx; also recorded: increases the intracellular Ca^2+ concentration

**Q.** Which results are given for “M680K: VR-OAC mutation of Lysine for Methionine at amino acid 680”?
**A.** function in tissue culture cells [5]: totally lacked function; rescue of lack of osmotic avoidance and lack of response to nose touch [1]: strikingly reduce rescue

**Q.** With “rat VR-OAC: rat orthologue of VR-OAC, 871 amino acids” as the molecule, how does the “rescue of lack … to nose touch” value [1] read?
**A.** partial rescue

**Q.** What about the “rescue of lack of odorant avoidance” value ([1]; osm-9 worms, octanone) of the same molecule?
**A.** no rescue

**Q.** `[Gd+3]` [Gd^3+, Gadolinium ion] was tested. Which “effect on VR-OAC-transfected cells (whole-cell current)” value ([2]; Gd^3+ extracellular, within the first few minutes) did it give?
**A.** resembled that of Ca^2+

**Q.** What about the “effect on whole-cell current” value ([2]; Gd^3+, more protracted exposure) of the same molecule?
**A.** irreversibly abolished the whole-cell current

**Q.** Which “response of VR-OAC-transfected cells to ligand (fluo-4 Ca2+ imaging)” value [3] does the source give for `CCCCC/C=C\C/C=C\C/C=C\C/C=C\CCCC(=O)NCCO` [anandamide] here?
**A.** responded neither

**Q.** What does the source list for `C/C=C(/C)C(=O)O[C@H]1C(C)=C2[C@H]([C@@H]1OC(=O)CCCCCCC)[C@@](C)(OC(C)=O)C[C@H](OC(=O)CCC)[C@@]1(O)[C@H]2OC(=O)[C@@]1(C)O` [thapsigargin]?
**A.** VR-OAC currents on stimulation with hypotonic solution [2]: displayed characteristic VR-OAC currents; fluo-4 fluorescence upon exposure to hypotonic medium [3]: does not increase

B1: VROAC without both its N-terminus and C-terminus: VR-OAC deletion of both N-terminal (AA 1-410) and C-terminal (AA 741-781) regions (protein, UniProt Q9HBA0 411-740, looked up, fragment)
chain: YGPVYSSLYDLSSLDTCGEEASVLEILVYNSKIENRHEMLAVEPINELLRDKWRKFGAVSFYINVVSYLCAMVIFTLTAYYQPLEGTPPYPYRTTVDYLRLAGEVITLFTGVLFFFTNIKDLFMKKCPGVNSLFIDGSFQLLYFIYSVLVIVSAALYLAGIEAYLAVMVFALVLGWMNALYFTRGLKLTGTYSIMIQKILFKDLFRFLLVYLLFMIGYASALVSLLNPCANMKVCNEDQTNCTVPTYPSCRDSETFSTFLLDLFKLTIGMGDLEMLSSTKYPVVFIILLVTYIILTFVLLLNMLIALMGETVGQVSKESKHIWKLQWATT
**Q.** For B1, which “rescue of lack … to nose touch” value [1] is on record?
**A.** still rescues
